Measured values as given in article PMC6208908, “Field template-based design and biological evaluation of new sphingosine kinase 1 inhibitors” (Breast Cancer Research and Treatment, 2018).
Marks after values point to notes of the source that are not given here.

Assays:
[1] = Whole-body toxicity: body and organ weights, full blood count; type: in vivo, BALB/c nude mice; details: 5 mg/kg each drug i.p. twice a week for 2 weeks, 4T1 tumour-bearing mice
Experimental: (§1) Breast cancer allografts were established in 6–8-week-old BALB/c nude mice by injection of 10^6 4T1 cells into their mammary pad. Two weeks after implantation, mice were randomised into treatment groups (n = 6/group) and treated twice a week for 2 weeks with intraperitoneal injections of dimethyl sulfoxide (DMSO), 5 mg/kg DTX, 5 mg/kg SK-F, 5 mg/kg DTX + 5 mg/kg SK-F. One day after the last treatment, all mice were euthanized and blood was collected. Tumour long and short radii were measured using calipers and tumour volume (v) was calculated using the formula v = 4/3 πab^2 (a – long radius, b – short radius). Mice and individual organs were weighed and primary tumours were then processed for analysis of SK1 activity as described above. Full blood count and liver function test analysis was done in the Hammersmith hospital biochemical lab.
Tumour-bearing mice were divided into four groups (n = 6) and injected with: DMSO, 5 mg/kg DTX, 5 mg/kg SK-F, 5 mg/kg DTX + 5 mg/kg SK-F. Two weeks after the tumour cells inoculation, we began intraperitoneal injections of drug preparations and continued these twice a week for two weeks. Based on our previous studies, we have chosen relatively smaller doses of SK-F and DTX in order to investigate their combined effect and potential chemosensitisation of breast tumours to taxane therapies. In the control group, tumours grew progressively and rapidly (Fig. 5a). […] Five mg/kg DTX has induced a significant reduction in tumour volume to 281 mm^3. The biggest reduction in tumour volume to 159 mm^3 was observed when DTX was combined with SK-F (Fig. 5a). […] We have further investigated the effects of the used treatments on mouse whole-body toxicity. DTX has reduced body and liver weight, while SK-F had no significant effect (Table 1). DTX has induced significant anaemia and leukopenia, while the effects of SK-F were very moderate. In all cases, the effects of combined therapy were similar to DTX alone (Table 1). Liver function test was performed as a surrogate marker for chemotherapy-induced liver damage (Fig. 6). […] The combination therapy had similar toxicity profile to DTX alone, while exerting higher antitumour efficacy (Fig. 5a).

[2] = system: 4T1 breast cancer allografts; assay: 4T1 breast cancer allograft, tumour volume; type: in vivo, BALB/c nude mice; details: 5 mg/kg each drug i.p. twice a week for 2 weeks; control 468 mm^3
Experimental: as §1, with “lab. […]” for “lab.”
(§2) Fig. 5 Effect of compound SK-F on breast tumour growth and SK1 activity. […] Two weeks after implantation, mice were randomised into treatment groups (n = 6/group) and treated twice a week for 2 weeks with intraperitoneal injections of: DMSO, 5 mg/kg DTX, 5 mg/kg SK-F, 5 mg/kg DTX + 5 mg/kg SK-F. a Tumour volume in the different treatment groups of 4T1 breast cancer implanted in mouse mammary fat pad. b SK1 activity in tumours was measured using radiolabelling. […]

[3] = Liver function tests in treated mice; type: in vivo, BALB/c nude mice; details: 5 mg/kg i.p. twice a week for 2 weeks
Experimental: as §1
Fig. 6 Liver function tests of mice treated with SK-F and docetaxel (DTX). Breast cancer allografts were established in BALB/c nude mice by injection of 4T1 cells into their mammary pad. Two weeks after implantation, mice were randomised into treatment groups (n = 6/group) and treated twice a week for two weeks with intraperitoneal injections of: DMSO, 5 mg/kg DTX, 5 mg/kg SK-F, 5 mg/kg DTX + 5 mg/kg SK-F. a Alanine transaminases (ALT). b Bilirubin. c Aspartate transaminase (AST). d Albumin. e Alkaline phosphatase (ALP). f Total protein. Columns, mean of n = 6 animals normalised to control; bars, SEM. (*p < 0.05; **p < 0.01)

[4] = target: T1, tumour SK1 (Mus musculus, UniProt Q8CI15); assay: SK1 activity in 4T1 allograft tumours; type: in vivo, BALB/c nude mice; details: 5 mg/kg each drug i.p. twice a week for 2 weeks
T1 construct: primary tumours were then processed for analysis of SK1 activity as described above; from tissue; host or cells: 4T1 breast tumour allografts from BALB/c nude mice
T1 sequence (Q8CI15 whole entry): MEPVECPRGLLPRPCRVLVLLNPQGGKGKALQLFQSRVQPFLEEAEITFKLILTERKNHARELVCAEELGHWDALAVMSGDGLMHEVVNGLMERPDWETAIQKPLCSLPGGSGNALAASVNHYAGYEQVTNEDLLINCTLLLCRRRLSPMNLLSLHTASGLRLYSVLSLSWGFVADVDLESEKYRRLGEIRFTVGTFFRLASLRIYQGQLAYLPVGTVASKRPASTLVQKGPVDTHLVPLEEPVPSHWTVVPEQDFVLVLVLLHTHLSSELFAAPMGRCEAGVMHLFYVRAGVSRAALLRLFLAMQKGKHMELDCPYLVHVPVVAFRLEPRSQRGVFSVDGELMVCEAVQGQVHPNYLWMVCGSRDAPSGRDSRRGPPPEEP
Experimental: as §1, §2

[5] = system: SK1 mRNA; assay: SK1 mRNA expression by qRT-PCR in MDA-MB-231 cells; type: cell-based, human; details: 1, 2, 5 and 10 µM, 24 h
Experimental: Isolation of total RNA from MDA-MB-231 cells was performed using the RNeasy Mini kit (Qiagen, Valencia, CA, USA) as per manufacturer’s instructions. RNA quantity and purity were measured using a NanoDrop ND-1000 Spectrophotometer (Thermo Fisher Scientific, Loughborough, UK). Reverse transcription was performed using precision nanoScript™ reverse transcription kit (PrimerDesign Ltd, Southampton, UK). qRT-PCR was done as already described. Ct values were exported and analysed using qbase software (Biogazelle NV, Zwijnaarde, Belgium).
Fig. 3 Effect of compounds SK-A to SK-F on SK1 mRNA levels. MDA-MB-231 cells were incubated with 1, 2, 5 and 10 µM of compounds SK-A to SK-F for 24 h. SK1 mRNA expression was measured by qRT-PCR. Columns, means of three independent experiments normalised to control; bars, SEM. (*p < 0.05; **p < 0.01)

[6] = system: MDA-MB-231 cells; assay: MTT cell viability / proliferation assay; type: cell-based, human; details: 1, 2, 5 and 10 µM, up to 120 h
Experimental: Cellular viability was measured using the 3-(4,5-dimethylthiazol-2-yl)-2,5-diphenyltetrazolium bromide (MTT; 5 mg/ml) colorimetric assay as already described.
Fig. 4 Effect of compounds SK-A to SK-F on breast cancer cell viability. MDA-MB-231 cells were incubated with 1, 2, 5 and 10 µM of compounds SK-A to SK-F for up to 120 h. Cell proliferation was measured using MTT assay. Columns, means of three independent experiments normalised to control; bars, SEM. (*p < 0.05; **p < 0.01; ^§p < 0.001). IC50 levels for SK-F for 72, 96 and 120 h were 7, 4.5 and 3 µM, respectively

[7] = target: recombinant SK1 (Homo sapiens, UniProt Q9NYA1); assay: SK1 activity assay, cell-free (recombinant SK1 extract, radiolabelling); type: biochemical; details: 1 µM compound, recombinant SK1 extract in excess, 1 µM ATP, 1 µM sphingosine, 1 h
recombinant SK1, sequence (Q9NYA1 whole entry): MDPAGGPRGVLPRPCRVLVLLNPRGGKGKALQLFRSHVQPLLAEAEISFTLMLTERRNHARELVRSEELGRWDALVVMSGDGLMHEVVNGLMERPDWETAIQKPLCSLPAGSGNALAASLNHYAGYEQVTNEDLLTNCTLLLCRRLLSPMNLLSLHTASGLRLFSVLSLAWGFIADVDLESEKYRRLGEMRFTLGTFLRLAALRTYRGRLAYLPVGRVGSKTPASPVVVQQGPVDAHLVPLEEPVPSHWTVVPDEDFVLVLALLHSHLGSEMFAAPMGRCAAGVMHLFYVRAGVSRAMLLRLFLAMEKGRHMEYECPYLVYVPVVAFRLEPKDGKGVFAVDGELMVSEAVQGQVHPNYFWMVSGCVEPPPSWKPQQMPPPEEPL
Experimental: (§3) SK assay was performed using radiolabeling as previously described, in conditions favouring SK1 or SK2 activity as required.
The synthesised compounds were then screened for SK1 inhibition. Compounds SK-A to SK-F and SKI-II (commercial inhibitor of SK used as positive control with reported IC50 0.5 µM [14]) at 1 µM were incubated in the presence of recombinant SK1 extract (in excess), 1 µM of ATP, and exogenous 1 µM sphingosine for 1 h followed by measurement of SK1 activity.
(§4) Fig. 2 Inhibition of sphingosine kinase 1 in cell-free extract and in vitro. a 1 µM of compounds SK-A to SK-F and SKI-II (commercial inhibitor of SK used as a positive control) were incubated in the presence of recombinant SK1 extract (in excess), 1 µM of ATP, and 1 µM exogenous sphingosine for 1 h. b MDA-MB-231 cells were incubated with 1 µM of compounds SK-A to SK-F and SKI-II for 6 h. SK1 activity was measured as described in materials and methods. Columns, means of three independent experiments normalised to vehicle; bars, SEM. (ns, non-significant; *p < 0.05; **p < 0.01)
SK1 activity was determined in the presence of triton X-100 and SK2 activity was measured in the presence of high salt concentrations, conditions that favour SK1 and SK2, respectively. […] Km for SK1 was 6.97 ± 1.20 µM, Vmax 98 ± 4 µM/min/mg protein and Ki for SK-F 0.46 ± 0.1 µM. […] Some SK inhibitors such as SKI-II were previously shown to induce proteasomal degradation of SK1 [48, 49].

[8] = target: T2, endogenous SK1 in MDA-MB-231 cells (Homo sapiens, UniProt Q9NYA1); assay: SK1 activity in lysates of treated MDA-MB-231 cells; type: cell-based; details: 1 µM, 6 h
T2 construct: We treated MDA-MB-231 cells with 1 µM of compounds SK-A – SK-F and SKI-II as the positive control for 6 h; endogenous in cells; host or cells: MDA-MB-231
T2 sequence (Q9NYA1 whole entry): as above
Experimental: After incubation, cells were washed with ice-cold phosphate-buffered saline (PBS) and harvested.
as §3, §4
Reportedly, among human tumour cell lines, the breast cancer cell line MDA-MB-231 expresses high levels of SK activity. We treated MDA-MB-231 cells with 1 µM of compounds SK-A – SK-F and SKI-II as the positive control for 6 h and analysed SK1 activity in the cell lysates using SK1 activity assay.

[9] = system: SK1 protein; assay: SK1 protein level (Figure S9); type: cell-based
[10] = system: SK; set-up: method as in PMID 14522923; details: commercial inhibitor of SK, positive control; read-out: reported IC50; cited from earlier work

## CC(=O)O[C@@]12CO[C@@H]1C[C@H](O)[C@@]1(C)C(=O)[C@H](O)C3=C(C)[C@@H](OC(=O)[C@H](O)[C@@H](NC(=O)OC(C)(C)C)c4ccccc4)C[C@@](O)([C@@H](OC(=O)c4ccccc4)[C@H]21)C3(C)C [DTX, docetaxel, reference compound]
[1]
  Hb: 65 ± 7 % of control ± SEM
  WCC: 54 ± 4 % of control ± SEM
  Weight of Body: 86 ± 7 % of control ± SEM
  Weight of Kidney: 97 ± 5.9^a % of control ± SEM
  Weight of Liver: 85.3 ± 11.4^a % of control ± SEM
  Weight of Lungs: 99.4 ± 4.a % of control ± SEM
  Weight of Spleen: 91.3 ± 15.4^a % of control ± SEM
[2]
  tumour volume at the end of the study: 281 mm^3
[3]
  alanine transaminases (ALT): significant increases
  alkaline phosphatase (ALP): milder increase
  aspartate transaminase (AST): significant increases
[4]
  tumour SK1 activity: no effect

## CCCCCCCCc1ccc(NC(=O)C2CCNCC2)cc1 [SK-C]
[5]
  effect on SK1 mRNA expression: reduction in SK1 mRNA
[6]
  effect on MDA-MB-231 cancer cell proliferation: highest effect
[7]
  inhibition of SK1 activity in cell-free settings: ineffective
[8]
  SK1 activity in cells versus vehicle: significantly decreased
[9]
  decrease in SK1 protein: 75%

## CCCCCCCCc1ccc(NC(=O)c2cccc(Cl)c2)cc1 [SK-E]
[7]
  inhibition of SK1 activity in cell-free settings: statistically significant inhibition
[8]
  SK1 activity in cells versus vehicle: significantly decreased

## Oc1ccc(Nc2nc(-c3ccc(Cl)cc3)cs2)cc1 [SKI-II, reference compound]
[5]
  effect on SK1 mRNA expression: minimal effect
[10]
  IC50: 500 nM
[9]
  effect on SK1 protein: significant decrease
